Data: patent US20240384350A1, “METHODS OF TREATING CANCER WITH KINASE INHIBITORS” (BOARD OF REGENTS, THE UNIVERSITY OF TEXAS SYSTEM, priority 2021, published 2024)

Experiments:
Test in all cases: Ba/F3 drug screening, Cell Titer Glo, IC50 Mut/WT
Format in all cases: cell-based
[1] = target: T1, EGFR E709_T710del insD (Homo sapiens, UniProt P00533, DEL709-709/T710D)
T1 construct: expressed in transfected cells; host or cells: Ba/F3

[2] = target: T2, EGFR L861Q (Homo sapiens, UniProt P00533, L861Q); settings: Classical-Like, 72 hours
T2 construct: expressed in transfected cells; host or cells: Ba/F3 cells, retroviral pBabe-Puro vector

[3] = target: T3, EGFR Ex19del T790M (Homo sapiens, UniProt P00533, DEL746-750/T790M); settings: T790M-like-3S, 72 hours
T3 construct: expressed in transfected cells; host or cells: Ba/F3

[4] = target: T4, EGFR N771dupN G724S (Homo sapiens, UniProt P00533, DUP771-771/G724S); settings: Ex20, 72 hours
T4 construct: expressed in transfected cells; host or cells: Ba/F3 cells, retroviral pBabe-Puro vector (vector made by GeneScript from EGFR G724S, c.2313_2314insAAC)
Method: (§1) Data represent the ratio of the IC50 value for a given TKI for cells with an ex20ins EGFR mutation to the IC50 value for cells with wildtype EGFR.
(§2) Ba/F3 cell generation, drug screening, and IC50 approximations. Ba/F3 cells were obtained as a gift from Dr. Gordon Mills (MD Anderson Cancer Center), and maintained in RPMI (Sigma) containing 10% FBS, 1% penicillin/streptomycin, and 10 ng/ml recombinant mIL-3 (R&D Biosystems). To establish stable Ba/F3 cell lines, Ba/F3 cells were transduced with retroviruses containing mutant EGFR plasmids for 12-24 hours.
(§3) After 48-72 hours of transduction, 2 μg/ml puromycin (Invitrogen) was added to Ba/F3 cell lines in complete RPMI. To select for EGFR positive cell lines, cells were stained with PE-EGFR (Biolegend) and sorted by FACS. After sorting, EGFR positive cells were maintained in RPMI containing 10% FBS, 1% penicillin/streptomycin, and 1 ng/ml EGF to support cell viability. Drug screening was performed as previously described^41,42. Shortly, cells were plated in 384-well plates (Greiner Bio-One) at 2000-3000 cells per well in technical triplicate. Seven different concentrations of TKIs or DMSO vehicle were added to reach a final volume of 40 μL per well. After 72 hours, 11 μL of Cell Titer Glo (Promega) was added to each well. Plates were incubated for a minimum of 10 minutes, and bioluminescence was determined using a FLUOstar OPTIMA plate reader (BMG LABTECH). Raw bioluminescence values were normalized to DMSO control treated cells, and values were plotted in GraphPad Prism. […] Drug screens were performed in technical triplicate on each plate and either duplicate or triplicate biological replicates. […] Statistical differences between groups were determined by ANOVA as described in the figure legends.

[5] = target: T5, EGFR A763insFQEA (Homo sapiens, UniProt P00533, INS763FQEA); settings: Classical-Like, 72 hours
T5 construct: expressed in transfected cells; host or cells: Ba/F3 cells, retroviral pBabe-Puro vector
Method: (§4) Data represent the ratio of the IC50 value for a given TKI for cells with a classical-like EGFR mutation to the IC50 value for cells with wildtype EGFR.
as §2
(§5) After 48-72 hours of transduction, 2 μg/ml puromycin (Invitrogen) was added to Ba/F3 cell lines in complete RPMI. To select for EGFR positive cell lines, cells were stained with PE-EGFR (Biolegend) and sorted by FACS. After sorting, EGFR positive cells were maintained in RPMI containing 10% FBS, 1% penicillin/streptomycin, and 1 ng/ml EGF to support cell viability. […] Shortly, cells were plated in 384-well plates (Greiner Bio-One) at 2000-3000 cells per well in technical triplicate. Seven different concentrations of TKIs or DMSO vehicle were added to reach a final volume of 40 μL per well. After 72 hours, 11 μL of Cell Titer Glo (Promega) was added to each well. Plates were incubated for a minimum of 10 minutes, and bioluminescence was determined using a FLUOstar OPTIMA plate reader (BMG LABTECH). Raw bioluminescence values were normalized to DMSO control treated cells, and values were plotted in GraphPad Prism. […] Drug screens were performed in technical triplicate on each plate and either duplicate or triplicate biological replicates.

[6] = target: T6, EGFR E709K L858R (Homo sapiens, UniProt P00533, E709K/L858R); settings: Classical-Like, 72 hours
T6 construct: expressed in transfected cells; host or cells: Ba/F3 cells, retroviral pBabe-Puro vector
Method: as §4, §2, §5

[7] = target: T7, EGFR L718Q T790M (Homo sapiens, UniProt P00533, L718Q/T790M); settings: T790M-like-3R, 72 hours
T7 construct: expressed in transfected cells; host or cells: Ba/F3
Method: (§6) Data represent the ratio of the IC50 value for a given TKI for cells with a T790M-like-3R EGFR mutation to the IC50 value for cells with wildtype EGFR.
as §2
(§7) After 48-72 hours of transduction, 2 μg/ml puromycin (Invitrogen) was added to Ba/F3 cell lines in complete RPMI. To select for EGFR positive cell lines, cells were stained with PE-EGFR (Biolegend) and sorted by FACS. After sorting, EGFR positive cells were maintained in RPMI containing 10% FBS, 1% penicillin/streptomycin, and 1 ng/ml EGF to support cell viability. […] Shortly, cells were plated in 384-well plates (Greiner Bio-One) at 2000-3000 cells per well in technical triplicate. Seven different concentrations of TKIs or DMSO vehicle were added to reach a final volume of 40 μL per well. After 72 hours, 11 μL of Cell Titer Glo (Promega) was added to each well. Plates were incubated for a minimum of 10 minutes, and bioluminescence was determined using a FLUOstar OPTIMA plate reader (BMG LABTECH). Raw bioluminescence values were normalized to DMSO control treated cells, and values were plotted in GraphPad Prism. […] Drug screens were performed in technical triplicate on each plate and either duplicate or triplicate biological replicates. […] Statistical differences between groups were determined by ANOVA as described in the figure legends.

[8] = target: T8, EGFR T790M (Homo sapiens, UniProt P00533, T790M); settings: T790M-like-3S, 72 hours
T8 construct: expressed in transfected cells; host or cells: Ba/F3

[9] = target: T9, EGFR L833F (Homo sapiens, UniProt P00533, L833F); settings: Classical-Like, 72 hours
T9 construct: expressed in transfected cells; host or cells: Ba/F3 cells, retroviral pBabe-Puro vector

[10] = tested on: EGFR I740dupIPVAK
[11] = target: T10, EGFR S768dupSVD (Homo sapiens, UniProt P00533, DUP768-770); settings: Ex20, 72 hours
T10 construct: expressed in transfected cells; host or cells: Ba/F3 cells, retroviral pBabe-Puro vector

[12] = target: T11, EGFR G719S T790M (Homo sapiens, UniProt P00533, G719S/T790M); settings: T790M-like-3S, 72 hours
T11 construct: expressed in transfected cells; host or cells: Ba/F3
Method: Data represent the ratio of the IC50 value for a given TKI for cells with a T790M-like-3S EGFR mutation to the IC50 value for cells with wildtype EGFR.
as §2
(§8) After 48-72 hours of transduction, 2 μg/ml puromycin (Invitrogen) was added to Ba/F3 cell lines in complete RPMI. To select for EGFR positive cell lines, cells were stained with PE-EGFR (Biolegend) and sorted by FACS. After sorting, EGFR positive cells were maintained in RPMI containing 10% FBS, 1% penicillin/streptomycin, and 1 ng/ml EGF to support cell viability. Drug screening was performed as previously described^41,42. Shortly, cells were plated in 384-well plates (Greiner Bio-One) at 2000-3000 cells per well in technical triplicate. Seven different concentrations of TKIs or DMSO vehicle were added to reach a final volume of 40 μL per well. After 72 hours, 11 μL of Cell Titer Glo (Promega) was added to each well. Plates were incubated for a minimum of 10 minutes, and bioluminescence was determined using a FLUOstar OPTIMA plate reader (BMG LABTECH). Raw bioluminescence values were normalized to DMSO control treated cells, and values were plotted in GraphPad Prism. […] Drug screens were performed in technical triplicate on each plate and either duplicate or triplicate biological replicates.

[13] = target: T12, EGFR G719A (Homo sapiens, UniProt P00533, G719A)
T12 construct: expressed in transfected cells; host or cells: Ba/F3

[14] = target: T13, EGFR L858R/L792H (Homo sapiens, UniProt P00533, L792H/L858R)
T13 construct: expressed in transfected cells; host or cells: Ba/F3
Method: (§9) Data represent the ratio of the IC50 value for a given TKI for cells with a PACC EGFR mutation to the IC50 value for cells with wildtype EGFR.
as §2, §8

[15] = target: T14, EGFR R776C (Homo sapiens, UniProt P00533, R776C)
T14 construct: host or cells: Ba/F3
Method: as §9, §2, §8

[16] = target: T15, EGFR E709A G719S (Homo sapiens, UniProt P00533, E709A/G719S)
T15 construct: expressed in transfected cells; host or cells: Ba/F3
Method: as §9, §2, §8

[17] = target: T16, EGFR L858R S784F (Homo sapiens, UniProt P00533, L858R/S784F); settings: Classical-Like, 72 hours
T16 construct: expressed in transfected cells; host or cells: Ba/F3 cells, retroviral pBabe-Puro vector (vector made by GeneScript from EGFR L858R)

[18] = target: T17, EGFR G719S (Homo sapiens, UniProt P00533, G719S)
T17 construct: expressed in transfected cells; host or cells: Ba/F3
Method: as §9, §2, §8

[19] = target: T18, EGFR G719A L861Q (Homo sapiens, UniProt P00533, G719A/L861Q)
T18 construct: expressed in transfected cells; host or cells: Ba/F3
Method: as §9, §2, §8

[20] = target: T19, EGFR Ex19del T790M C797S (Homo sapiens, UniProt P00533, C797S/DEL746-750/T790M); settings: T790M-like-3R, 72 hours
T19 construct: expressed in transfected cells; host or cells: Ba/F3

[21] = target: T20, EGFR S720P (Homo sapiens, UniProt P00533, S720P); settings: Classical-Like, 72 hours
T20 construct: expressed in transfected cells; host or cells: Ba/F3 cells, retroviral pBabe-Puro vector (vector made by GeneScript from EGFR WT)

[22] = target: T21, EGFR L858R T790M L718V (Homo sapiens, UniProt P00533, L718V/L858R/T790M); settings: T790M-like-3R, 72 hours
T21 construct: expressed in transfected cells; host or cells: Ba/F3
Method: as §6, §2, §7

[23] = target: T22, EGFR L747P (Homo sapiens, UniProt P00533, L747P)
T22 construct: expressed in transfected cells; host or cells: Ba/F3
Method: as §9, §2, §3

[24] = target: T23, EGFR A763insLQEA (Homo sapiens, UniProt P00533, INS763LQEA); settings: Classical-Like, 72 hours
T23 construct: expressed in transfected cells; host or cells: Ba/F3 cells, retroviral pBabe-Puro vector

[25] = target: T24, EGFR V774M (Homo sapiens, UniProt P00533, V774M)
T24 construct: host or cells: Ba/F3
Method: as §9, §2, §8

[26] = target: T25, EGFR Ex19del (Homo sapiens, UniProt P00533, DEL746-750); settings: Classical-Like, 72 hours
T25 construct: expressed in transfected cells; host or cells: Ba/F3 cells, retroviral pBabe-Puro vector

[27] = target: T26, EGFR H773insNPH (Homo sapiens, UniProt P00533, INS773NPH); settings: Ex20, 72 hours
T26 construct: expressed in transfected cells; host or cells: Ba/F3 cells, retroviral pBabe-Puro vector
Method: as §1, §2, §3

| Structure (SMILES) | ratio of IC50 for cells with mutant EGFR to IC50 for cells with wildtype EGFR (Mut/WT) [2] | ratio of IC50 for cells with mutant EGFR to IC50 for cells with wildtype EGFR (Mut/WT) [5] | ratio of IC50 for cells with mutant EGFR to IC50 for cells with wildtype EGFR (Mut/WT) [6] | ratio of IC50 for cells with mutant EGFR to IC50 for cells with wildtype EGFR (Mut/WT) [7] | ratio of IC50 for cells with mutant EGFR to IC50 for cells with wildtype EGFR (Mut/WT) [8] | ratio of IC50 for cells with mutant EGFR to IC50 for cells with wildtype EGFR (Mut/WT) [9] | ratio of IC50 for cells with mutant EGFR to IC50 for cells with wildtype EGFR (Mut/WT) [11] | ratio of IC50 for cells with mutant EGFR to IC50 for cells with wildtype EGFR (Mut/WT) [12] | ratio of IC50 for cells with mutant EGFR to IC50 for cells with wildtype EGFR (Mut/WT) [17] | ratio of IC50 for cells with mutant EGFR to IC50 for cells with wildtype EGFR (Mut/WT) [20] | ratio of IC50 for cells with mutant EGFR to IC50 for cells with wildtype EGFR (Mut/WT) [21] | ratio of IC50 for cells with mutant EGFR to IC50 for cells with wildtype EGFR (Mut/WT) [22] | ratio of IC50 for cells with mutant EGFR to IC50 for cells with wildtype EGFR (Mut/WT) [24] | ratio of IC50 for cells with mutant EGFR to IC50 for cells with wildtype EGFR (Mut/WT) [27] | further results |
| --- | --- | --- | --- | --- | --- | --- | --- | --- | --- | --- | --- | --- | --- | --- | --- |
| COc1cc2ncnc(Nc3ccc(F)c(Cl)c3)c2cc1NC(=O)/C=C/CN1CCCCC1 [Dacomitinib] | 0.002064 | 0.0379 | 0.007985 | 4.784 | 6.061 | 0.1863 | 0.882 | 3.776 | 0.06448 | 38.03 | 0.03879 | 20.65 | 0.001484 | 1.645 | ratio of IC50 for cells with mutant EGFR to IC50 for cells with wildtype EGFR (Mut/WT) ([1]; PACC, E709_T710del insD, Ba/F3, 72 hours): 0.08391; ratio of IC50 for cells with mutant EGFR to IC50 for cells with wildtype EGFR (Mut/WT) [3]: 4.871; ratio of IC50 for cells with mutant EGFR to IC50 for cells with wildtype EGFR (Mut/WT) [4]: 3.161; ratio of IC50 for cells with mutant EGFR to IC50 for cells with wildtype EGFR (Mut/WT) ([10]; PACC, I740dupIPVAK, Ba/F3, 72 hours): 0.01376; ratio of IC50 for cells with mutant EGFR to IC50 for cells with wildtype EGFR (Mut/WT) ([13]; PACC, G719A, Ba/F3, 72 hours): 0.001888; ratio of IC50 for cells with mutant EGFR to IC50 for cells with wildtype EGFR (Mut/WT) ([14]; PACC, L858R/L792H, Ba/F3, 72 hours): 0.002838; ratio of IC50 for cells with mutant EGFR to IC50 for cells with wildtype EGFR (Mut/WT) ([15]; PACC, R776C, Ba/F3, 72 hours): 0.1215; ratio of IC50 for cells with mutant EGFR to IC50 for cells with wildtype EGFR (Mut/WT) ([16]; PACC, E709A G719S, Ba/F3, 72 hours): 0.001614; ratio of IC50 for cells with mutant EGFR to IC50 for cells with wildtype EGFR (Mut/WT) ([18]; PACC, G719S, Ba/F3, 72 hours): 0.002178; ratio of IC50 for cells with mutant EGFR to IC50 for cells with wildtype EGFR (Mut/WT) ([19]; PACC, G719A L861Q, Ba/F3, 72 hours): 0.002249; ratio of IC50 for cells with mutant EGFR to IC50 for cells with wildtype EGFR (Mut/WT) ([23]; PACC, L747P, Ba/F3, 72 hours): 0.2972; ratio of IC50 for cells with mutant EGFR to IC50 for cells with wildtype EGFR (Mut/WT) ([25]; PACC, V774M, Ba/F3, 72 hours): 0.04513; ratio of IC50 for cells with mutant EGFR to IC50 for cells with wildtype EGFR (Mut/WT) [26]: 0.005832 |
| C=CC(=O)Nc1cc(Nc2nccc(-n3cc(CN(C)C)c(-c4ccccc4)n3)n2)c(OC)cc1N1CCOCC1 [Lazertinib] | 0.05622 | 0.03797 | 0.0006261 | 3.513 | 0.2517 | 0.08625 | 4.027 | 0.003464 | 0.02456 | 26.17 | 0.01568 | 0.5404 | 0.1304 | 5.102 | ratio of the IC50 value for cells with a PACC EGFR mutation to the IC50 value for cells with wildtype EGFR ([1]; Ba/F3 cells, EGFR E709_T710del insD (PACC), Mut/WT): 0.5663; ratio of the IC50 value for cells with a PACC EGFR mutation to the IC50 value for cells with wildtype EGFR ([10]; Ba/F3 cells, EGFR I740dupIPVAK (PACC), Mut/WT): 0.2883; ratio of the IC50 value for cells with a PACC EGFR mutation to the IC50 value for cells with wildtype EGFR ([13]; Ba/F3 cells, EGFR G719A (PACC), Mut/WT): 0.362; ratio of the IC50 value for cells with a PACC EGFR mutation to the IC50 value for cells with wildtype EGFR ([14]; Ba/F3 cells, EGFR L858R/L792H (PACC), Mut/WT): 0.1416; ratio of the IC50 value for cells with a PACC EGFR mutation to the IC50 value for cells with wildtype EGFR ([15]; Ba/F3 cells, EGFR R776C (PACC), Mut/WT): 1.504; ratio of the IC50 value for cells with a PACC EGFR mutation to the IC50 value for cells with wildtype EGFR ([16]; Ba/F3 cells, EGFR E709A G719S (PACC), Mut/WT): 0.06878; ratio of the IC50 value for cells with a PACC EGFR mutation to the IC50 value for cells with wildtype EGFR ([18]; Ba/F3 cells, EGFR G719S (PACC), Mut/WT): 0.1555; ratio of the IC50 value for cells with a PACC EGFR mutation to the IC50 value for cells with wildtype EGFR ([19]; Ba/F3 cells, EGFR G719A L861Q (PACC), Mut/WT): 1.406; ratio of the IC50 value for cells with a PACC EGFR mutation to the IC50 value for cells with wildtype EGFR ([23]; Ba/F3 cells, EGFR L747P (PACC), Mut/WT): 2.92; ratio of the IC50 value for cells with a PACC EGFR mutation to the IC50 value for cells with wildtype EGFR ([25]; Ba/F3 cells, EGFR V774M (PACC), Mut/WT): 0.9635 |
